Data on 3 compounds can be found in ChEMBL document CHEMBL4420078, “Sos1 inhibitors for cancer treatment” (2016).

The source made the active and inactive calls. The rule behind the calls is not given here.

In series [1] the test system is MIA PaCa-2. Put plainly: Effect on total MEK protein levels in overnight serum-starved human MIAPaCa2 cells at 20 to 40 uM by Western blotting analysis. It counts as ADME, cell-based. The conditions noted are these: mia paca-2, 40 µM. On the technique in general: In western blotting, separated proteins are transferred to a membrane and probed.
The subject of series [2] is BXPC-3. Put plainly: Antiproliferative activity against human BxPC3 cells assessed as reduction in cell number incubated for 3 days by MTS assay. Format: functional, cell-based. (Tetrazolium assays rely on reduction of a dye to a coloured formazan, in cell work by metabolically active cells.)
In series [3] the target is T1, Son of sevenless homolog 1 (Homo sapiens) (UniProt Q07889).
T1 sequence (whole entry): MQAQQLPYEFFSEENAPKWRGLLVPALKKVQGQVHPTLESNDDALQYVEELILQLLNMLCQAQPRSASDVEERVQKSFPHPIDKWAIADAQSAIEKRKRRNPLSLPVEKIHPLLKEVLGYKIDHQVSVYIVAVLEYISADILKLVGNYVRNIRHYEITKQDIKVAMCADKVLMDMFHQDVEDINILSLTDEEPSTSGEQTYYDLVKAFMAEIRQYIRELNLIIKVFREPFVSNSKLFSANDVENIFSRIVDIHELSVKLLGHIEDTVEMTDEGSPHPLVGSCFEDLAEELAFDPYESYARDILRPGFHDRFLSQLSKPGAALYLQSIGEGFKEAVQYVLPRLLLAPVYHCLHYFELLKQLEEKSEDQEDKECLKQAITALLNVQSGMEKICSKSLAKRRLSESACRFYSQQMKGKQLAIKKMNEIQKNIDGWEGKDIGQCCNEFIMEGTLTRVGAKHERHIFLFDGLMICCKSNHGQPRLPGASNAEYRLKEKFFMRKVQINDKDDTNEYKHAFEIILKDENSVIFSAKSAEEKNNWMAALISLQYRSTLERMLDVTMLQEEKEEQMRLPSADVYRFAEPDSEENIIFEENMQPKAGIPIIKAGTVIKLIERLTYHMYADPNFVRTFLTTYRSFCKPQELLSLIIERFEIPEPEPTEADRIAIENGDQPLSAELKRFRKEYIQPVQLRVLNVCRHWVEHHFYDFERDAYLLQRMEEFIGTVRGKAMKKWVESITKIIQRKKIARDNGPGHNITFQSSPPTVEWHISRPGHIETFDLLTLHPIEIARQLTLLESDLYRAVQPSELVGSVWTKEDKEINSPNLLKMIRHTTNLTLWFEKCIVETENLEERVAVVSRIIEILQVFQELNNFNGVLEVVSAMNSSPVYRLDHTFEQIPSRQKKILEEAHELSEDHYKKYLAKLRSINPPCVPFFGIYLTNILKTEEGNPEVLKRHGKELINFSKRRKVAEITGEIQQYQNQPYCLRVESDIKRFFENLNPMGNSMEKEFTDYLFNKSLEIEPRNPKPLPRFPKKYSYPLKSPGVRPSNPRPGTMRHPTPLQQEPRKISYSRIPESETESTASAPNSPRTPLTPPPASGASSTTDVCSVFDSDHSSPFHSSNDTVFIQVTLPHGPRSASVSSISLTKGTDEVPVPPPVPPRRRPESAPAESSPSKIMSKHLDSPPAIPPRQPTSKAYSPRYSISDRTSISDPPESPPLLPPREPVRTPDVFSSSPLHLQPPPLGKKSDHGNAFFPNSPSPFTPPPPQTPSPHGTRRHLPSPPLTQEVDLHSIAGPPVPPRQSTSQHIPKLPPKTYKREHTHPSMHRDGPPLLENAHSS
Put plainly: Inhibition of SOS1 in overnight serum-starved human BxPC3 cells assessed as reduction in EGFR phosphorylation at 40 to 60 uM incubated for 2 hrs by Western blotting analysis.

The target of series [4] is T1, Son of sevenless homolog 1 (Homo sapiens). Put plainly: Inhibition of N-terminal 6x-His-tagged recombinant human SOS1 catalytic domain (residues 564 to 1049 residues) expressed in Escherichia coli BL21 (DE3) assessed as reduction in 50 nM SOS1-mediated GDP/GTP nucleotide exchange upon 2 uM N-terminal-GST-tagged H-Ras (1 to 166 residues) at 20 uM by BODIPY-FL-GDP dissociation assay.

Series [5] concerns the target T2, Son of sevenless homolog 1 (Mus musculus) (UniProt Q62245).
T2 sequence (whole entry): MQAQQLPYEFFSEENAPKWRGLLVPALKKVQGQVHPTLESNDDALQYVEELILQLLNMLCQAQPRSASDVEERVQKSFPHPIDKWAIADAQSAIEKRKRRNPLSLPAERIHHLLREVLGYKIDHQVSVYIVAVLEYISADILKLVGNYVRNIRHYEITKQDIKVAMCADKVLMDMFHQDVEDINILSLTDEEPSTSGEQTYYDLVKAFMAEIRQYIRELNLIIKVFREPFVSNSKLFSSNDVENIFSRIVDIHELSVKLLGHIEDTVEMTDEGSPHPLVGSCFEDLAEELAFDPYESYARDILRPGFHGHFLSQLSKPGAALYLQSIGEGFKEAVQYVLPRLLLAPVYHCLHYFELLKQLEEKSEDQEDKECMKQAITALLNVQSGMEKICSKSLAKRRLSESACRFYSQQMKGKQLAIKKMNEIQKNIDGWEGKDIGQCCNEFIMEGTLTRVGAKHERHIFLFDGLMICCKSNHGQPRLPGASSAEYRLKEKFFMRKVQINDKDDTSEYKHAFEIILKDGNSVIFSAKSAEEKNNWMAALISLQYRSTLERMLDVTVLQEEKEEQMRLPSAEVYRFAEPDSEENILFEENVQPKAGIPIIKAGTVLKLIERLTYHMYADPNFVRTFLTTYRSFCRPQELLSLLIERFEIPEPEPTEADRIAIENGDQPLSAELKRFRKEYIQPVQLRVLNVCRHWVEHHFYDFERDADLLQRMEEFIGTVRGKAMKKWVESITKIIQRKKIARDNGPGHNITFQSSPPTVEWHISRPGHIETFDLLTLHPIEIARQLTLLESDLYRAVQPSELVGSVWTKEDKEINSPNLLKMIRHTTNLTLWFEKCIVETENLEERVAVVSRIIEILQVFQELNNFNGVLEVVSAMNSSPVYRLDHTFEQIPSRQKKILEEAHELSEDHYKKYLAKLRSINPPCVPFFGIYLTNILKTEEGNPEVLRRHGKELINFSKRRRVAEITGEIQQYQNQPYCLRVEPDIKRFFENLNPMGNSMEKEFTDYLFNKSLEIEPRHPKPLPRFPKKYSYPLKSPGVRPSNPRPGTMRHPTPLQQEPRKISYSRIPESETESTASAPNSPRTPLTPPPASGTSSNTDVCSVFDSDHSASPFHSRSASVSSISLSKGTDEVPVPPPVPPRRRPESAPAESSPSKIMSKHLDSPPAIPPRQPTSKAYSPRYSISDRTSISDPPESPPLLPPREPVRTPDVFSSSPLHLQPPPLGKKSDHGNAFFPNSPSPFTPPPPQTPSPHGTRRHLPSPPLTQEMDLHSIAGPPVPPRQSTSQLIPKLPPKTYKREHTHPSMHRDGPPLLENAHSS
Put plainly: Inhibition of SOS1 in overnight serum-starved mouse NIH/3T3 cells assessed as reduction in ERK1/2 phosphorylation at 20 to 100 uM pre-incubated for 2 hrs before EGF stimulation for 5 mins by Western blot analysis.

Take `O=[N+]([O-])c1ccccc1/C=C/C=C1c2ccccc2-c2ccccc21`: the Activity entry was “Non-Toxic” in series [1] and “Dose-dependent effect” in series [2]. The inhibition result in series [3] was “Active”. Consider `O=C(O)c1cc2c3c(c1)C1C=CCC1C(c1ccccc1Cl)N3CC1CC=CC21` (stereo not given), for which the inhibition result in series [4] is “Active”. As to `O=C1Oc2ccccc2C(=O)/C1=C/N1C(=O)/C(=C/c2ccc([N+](=O)[O-])cc2)SC1=S`, the inhibition entry in series [5] is “Active”.
